Measured values as given in US9617267B2, “Compounds and methods for kinase modulation, and indications therefor” (Plexxikon Inc., priority 2009, dated 2017).
pIC50: −log10 of the molar value. Like-named read-outs stand apart in the source and are kept apart here.

How the values were obtained:
CYP2C19 = CYP2C19 (Homo sapiens (Human), UniProt P33261); experiment: CYP enzyme inhibition, fluorescent substrate (CEC); settings: read-out: Cyp IC50 2C19; CYP2C19, substrate CEC
Procedure, shortened: (§1)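 IC50 values come from plotting product fluorescence against compound concentration; inhibition lowers formation of the fluorescent metabolite. Ten-point twofold dilutions in co-factor mix were held 10 minutes at 37 °C before the enzyme reaction, also run at 37 °C.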

CYP1A2 = CYP1A2 (Homo sapiens (Human), UniProt P05177); experiment: CYP enzyme inhibition, fluorescent substrate (CEC)
Procedure, shortened: (§2)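 Ten-point 1:1 compound dilutions in NADPH-regenerating cofactor mix, pre-incubated 10 min at 37 °C before enzyme/substrate addition: CYP1A2 0.5 pmol with 5 μM CEC, 15 min, 409 ex/460 em; CYP2D6 1.5 pmol with 1.5 μM AMMC, 30 min, 409 ex/530 em. IC50 from fluorescent product vs concentration.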

CYP3A4(BQ) = CYP3A4(BQ) (Homo sapiens (Human), UniProt P08684); experiment: CYP enzyme inhibition, fluorescent substrate BQ
Procedure: CYP (Cytochrome P450) enzymes are the major drug metabolizing enzymes present in the liver. The inhibition of CYP enzyme activity (IC50) for each of CYP1A2, CYP2C19, CYP2C9, CYP2D6, CYP3A4(BFC) and CYP3A4(BQ) is determined for compounds, where inhibition of metabolism of a known substrate leads to a decrease in the fluorescence of the metabolized product. The fluorescence of the product is monitored as a function of compound concentration.
Compounds are dissolved in dimethyl sulfoxide to a concentration of 100 mM. These are diluted 1 μL into 82 μL of acetonitrile. […] These are then serially diluted 1:1 (160 μL to 160 μL co-factor mix) for a total of 10 points. A 10 μL aliquot of this final mixture is dispensed into 384 well assay plates and incubated for 10 minutes at 37° C. […] Assay plates are incubated at 37° C. […] The signal versus compound concentration is used to determine the IC50. The enzymes and substrates for this assay are obtained from BD Biosciences.

[1] = Relative solubility by turbidity threshold concentration in aqueous buffers (pH 1.5, 4.5, 6.8, 7.4); type: physicochemical; settings: for turbidity threshold (L, M, H) 1.4: pH 1.4 [sic] (method: SGF pH 1.5); for turbidity threshold (L, M, H) 4.5: pH 4.5 (SIF); for turbidity threshold (L, M, H) 6.8: pH 6.8 (SIF); for turbidity threshold (L, M, H) 7.4: pH 7.4 (HEPES)
Procedure, shortened: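 Solubility class (high >250 μM, moderate 31.3–250 μM, low <31.3 μM) comes from the concentration where absorbance reaches a 0.01 threshold, averaged across 490/535/650 nm. Samples were compound dilutions from DMSO stock, 1 μL into 99 μL buffer at pH 1.5, 4.5, 6.8 or 7.4.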

CYP2D6 = CYP2D6 (Homo sapiens (Human), UniProt P10635); experiment: CYP enzyme inhibition, fluorescent substrate (AMMC); type: in vitro ADME; settings: read-out: Cyp IC50 2D6
Procedure, shortened: as §2

CYP3A4(BFC) = CYP3A4(BFC) (Homo sapiens (Human), UniProt P08684); experiment: CYP enzyme inhibition, fluorescent substrate BFC; settings: read-out: Cyp IC50 3A4(BFC); CYP3A4, substrate BFC
Procedure, shortened: as §1

CYP2C9 = CYP2C9 (Homo sapiens (Human), UniProt P11712); experiment: CYP enzyme inhibition, fluorescent substrate (MFC); settings: read-out: Cyp IC50 2C9; CYP2C9, substrate MFC
Procedure, shortened: as §1

[2] = read-out: Cyp IC50 3A4(BQ), CYP3A4, substrate BQ

Chain of CYP2C9 (P11712 whole entry): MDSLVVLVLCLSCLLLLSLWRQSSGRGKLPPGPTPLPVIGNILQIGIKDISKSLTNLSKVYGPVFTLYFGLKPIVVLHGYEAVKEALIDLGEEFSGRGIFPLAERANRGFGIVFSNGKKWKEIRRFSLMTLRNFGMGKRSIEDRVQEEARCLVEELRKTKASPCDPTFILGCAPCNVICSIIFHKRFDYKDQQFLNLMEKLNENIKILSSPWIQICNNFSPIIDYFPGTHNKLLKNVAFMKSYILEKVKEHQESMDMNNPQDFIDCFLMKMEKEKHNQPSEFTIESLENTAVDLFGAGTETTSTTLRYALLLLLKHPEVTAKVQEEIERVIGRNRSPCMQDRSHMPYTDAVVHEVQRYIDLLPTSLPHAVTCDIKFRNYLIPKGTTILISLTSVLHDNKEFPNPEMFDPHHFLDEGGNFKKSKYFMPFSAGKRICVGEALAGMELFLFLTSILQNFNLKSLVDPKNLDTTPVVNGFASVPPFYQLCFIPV
Chain of CYP1A2 (P05177 whole entry): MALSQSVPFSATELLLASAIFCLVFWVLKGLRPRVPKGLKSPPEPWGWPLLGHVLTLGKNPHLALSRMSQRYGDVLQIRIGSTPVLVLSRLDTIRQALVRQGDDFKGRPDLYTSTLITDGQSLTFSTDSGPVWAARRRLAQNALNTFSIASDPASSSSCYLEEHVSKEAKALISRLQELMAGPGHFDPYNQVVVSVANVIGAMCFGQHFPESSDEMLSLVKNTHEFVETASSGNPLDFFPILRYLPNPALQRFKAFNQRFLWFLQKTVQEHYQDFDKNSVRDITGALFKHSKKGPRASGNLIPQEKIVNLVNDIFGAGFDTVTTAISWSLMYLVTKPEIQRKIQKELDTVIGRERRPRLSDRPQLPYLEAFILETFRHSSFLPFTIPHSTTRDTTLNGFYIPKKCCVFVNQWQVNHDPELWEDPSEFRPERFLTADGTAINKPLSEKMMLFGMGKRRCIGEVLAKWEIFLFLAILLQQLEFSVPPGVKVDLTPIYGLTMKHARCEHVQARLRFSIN
Chain of CYP2C19 (P33261 whole entry): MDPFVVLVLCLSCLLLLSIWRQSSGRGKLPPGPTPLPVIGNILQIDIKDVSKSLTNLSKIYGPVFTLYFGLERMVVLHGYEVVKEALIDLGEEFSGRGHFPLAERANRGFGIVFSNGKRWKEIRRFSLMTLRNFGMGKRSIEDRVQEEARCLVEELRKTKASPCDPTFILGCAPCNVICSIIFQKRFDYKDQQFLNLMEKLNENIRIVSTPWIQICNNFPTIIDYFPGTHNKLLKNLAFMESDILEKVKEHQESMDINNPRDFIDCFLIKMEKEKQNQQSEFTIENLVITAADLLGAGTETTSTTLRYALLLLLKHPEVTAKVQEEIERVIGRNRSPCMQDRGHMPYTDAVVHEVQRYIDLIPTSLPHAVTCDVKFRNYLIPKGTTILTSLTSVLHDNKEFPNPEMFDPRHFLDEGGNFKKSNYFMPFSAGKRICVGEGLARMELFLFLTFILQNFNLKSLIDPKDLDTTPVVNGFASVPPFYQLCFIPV
Chain of CYP2D6 (P10635 whole entry): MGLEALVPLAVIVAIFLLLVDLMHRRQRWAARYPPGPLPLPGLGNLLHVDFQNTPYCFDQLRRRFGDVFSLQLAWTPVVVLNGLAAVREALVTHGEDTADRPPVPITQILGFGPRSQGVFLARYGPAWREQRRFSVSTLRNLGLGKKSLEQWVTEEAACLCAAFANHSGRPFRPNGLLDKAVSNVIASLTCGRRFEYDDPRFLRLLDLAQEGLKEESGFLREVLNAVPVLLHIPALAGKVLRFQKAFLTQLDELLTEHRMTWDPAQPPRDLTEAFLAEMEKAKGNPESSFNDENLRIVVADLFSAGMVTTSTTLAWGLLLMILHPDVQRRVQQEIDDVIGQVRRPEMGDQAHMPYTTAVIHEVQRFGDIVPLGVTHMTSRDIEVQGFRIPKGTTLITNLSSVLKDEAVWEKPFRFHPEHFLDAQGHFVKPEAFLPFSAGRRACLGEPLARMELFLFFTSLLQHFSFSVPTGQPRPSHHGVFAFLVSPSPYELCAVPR
Chain of CYP3A4(BFC) (P08684 whole entry): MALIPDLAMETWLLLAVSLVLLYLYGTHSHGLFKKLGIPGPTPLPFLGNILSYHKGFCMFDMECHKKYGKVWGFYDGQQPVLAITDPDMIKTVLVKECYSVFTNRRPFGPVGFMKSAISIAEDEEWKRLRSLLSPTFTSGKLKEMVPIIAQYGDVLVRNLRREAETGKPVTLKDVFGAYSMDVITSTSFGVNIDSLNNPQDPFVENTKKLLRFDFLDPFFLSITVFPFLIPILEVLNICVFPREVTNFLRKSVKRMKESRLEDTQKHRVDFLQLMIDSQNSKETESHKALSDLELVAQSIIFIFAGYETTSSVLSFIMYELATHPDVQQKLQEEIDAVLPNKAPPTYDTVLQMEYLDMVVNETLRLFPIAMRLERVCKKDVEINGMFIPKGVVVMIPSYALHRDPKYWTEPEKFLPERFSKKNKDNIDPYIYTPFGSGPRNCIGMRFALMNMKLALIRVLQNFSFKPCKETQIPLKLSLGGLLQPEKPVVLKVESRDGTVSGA
Chain of CYP3A4(BQ) (P08684 whole entry): as above

Compound	pIC50 (CYP2C19)	pIC50 (CYP1A2; human, 15 min)	pIC50 (CYP3A4(BQ); [2])	turbidity threshold (L, M, H) 1.4 [1]	turbidity threshold (L, M, H) 4.5 [1]	turbidity threshold (L, M, H) 6.8 [1]	turbidity threshold (L, M, H) 7.4 [1]	pIC50 (CYP2D6)	pIC50 (CYP3A4(BFC))	pIC50 (CYP2C9)	pIC50 (CYP3A4(BQ))	pIC50 (CYP1A2; read-out: Cyp IC50 1A2, CYP1A2, substrate CEC)	pIC50 (CYP1A2)
CCCS(=O)(=O)Nc1ccc(F)c(C(=O)c2c[nH]c3ncnc(Nc4ccccn4)c23)c1F [P-1077, Propane-1-sulfonic acid {2,4-difluoro-3-[4-(pyridin-2-ylamino)-7H-pyrrolo[2,3-d]pyrimidine-5-carbonyl]-phenyl}-amide]	< 5.00	< 5.00	< 5.00	H (high solubility if the threshold concentration is >250 μm)	L (low solubility if the threshold concentration is <31.3 μM)	L (low solubility if the threshold concentration is <31.3 μM)	L (low solubility if the threshold concentration is <31.3 μM)	< 5.00	< 5.00	< 5.00	–	–	–
CCCS(=O)(=O)Nc1ccc(F)c(C(=O)c2c[nH]c3ncnc(Nc4cccnc4)c23)c1F [P-1078, Propane-1-sulfonic acid {2,4-difluoro-3-[4-(pyridin-3-ylamino)-7H-pyrrolo[2,3-d]pyrimidine-5-carbonyl]-phenyl}-amide]	< 5.00	< 5.00	–	M (moderate solubility if the threshold concentration is 31.3 μM to 250 μM)	L (low solubility if the threshold concentration is <31.3 μM)	L (low solubility if the threshold concentration is <31.3 μM)	L (low solubility if the threshold concentration is <31.3 μM)	< 5.00	< 5.00	> 5.30	5.00 to 5.30	–	–
CCCS(=O)(=O)Nc1ccc(F)c(C(=O)c2c[nH]c3ncnc(NCC4CC4)c23)c1F [P-1079, Propane-1-sulfonic acid {3-[4-(cyclopropylmethyl-amino)-7H-pyrrolo[2,3-d]pyrimidine-5-carbonyl]-2,4-difluoro-phenyl}-amide]	< 5.00	< 5.00	< 5.00	M (moderate solubility if the threshold concentration is 31.3 μM to 250 μM)	L (low solubility if the threshold concentration is <31.3 μM)	L (low solubility if the threshold concentration is <31.3 μM)	L (low solubility if the threshold concentration is <31.3 μM)	< 5.00	< 5.00	< 5.00	–	–	–
CCCS(=O)(=O)Nc1ccc(F)c(C(=O)c2c[nH]c3ncnc(NC4CCCC4)c23)c1F [P-1081, Propane-1-sulfonic acid [3-(4-cyclopentylamino-7H-pyrrolo[2,3-d]pyrimidine-5-carbonyl)-2,4-difluoro-phenyl]-amide]	< 5.00	< 5.00	< 5.00	H (high solubility if the threshold concentration is >250 μm)	L (low solubility if the threshold concentration is <31.3 μM)	L (low solubility if the threshold concentration is <31.3 μM)	L (low solubility if the threshold concentration is <31.3 μM)	< 5.00	< 5.00	< 5.00	–	–	–
CCCS(=O)(=O)Nc1ccc(F)c(C(=O)c2c[nH]c3ncnc(Nc4cn(C)nc4C)c23)c1F [P-1100, Propane-1-sulfonic acid {3-[4-(1,3-dimethyl-1H-pyrazol-4-ylamino)-7H-pyrrolo[2,3-d]pyrimidine-5-carbonyl]-2,4-difluoro-phenyl}-amide]	< 5.00	–	< 5.00	M (moderate solubility if the threshold concentration is 31.3 μM to 250 μM)	M (moderate solubility if the threshold concentration is 31.3 μM to 250 μM)	L (low solubility if the threshold concentration is <31.3 μM)	L (low solubility if the threshold concentration is <31.3 μM)	< 5.00	< 5.00	< 5.00	–	< 5.00	–
CCCS(=O)(=O)Nc1ccc(F)c(C(=O)c2c[nH]c3ncnc(Nc4ccc(OC)cc4F)c23)c1F [P-1101, Propane-1-sulfonic acid {2,4-difluoro-3-[4-(2-fluoro-4-methoxy-phenylamino)-7H-pyrrolo[2,3-d]pyrimidine-5-carbonyl]-phenyl}-amide]	< 5.00	< 5.00	< 5.00	L (low solubility if the threshold concentration is <31.3 μM)	L (low solubility if the threshold concentration is <31.3 μM)	L (low solubility if the threshold concentration is <31.3 μM)	L (low solubility if the threshold concentration is <31.3 μM)	< 5.00	< 5.00	< 5.00	–	–	–
O=C(c1c(F)ccc(NS(=O)(=O)c2ccccc2F)c1F)c1c[nH]c2ncnc(NC3CC3)c12 [P-1103, N-[3-(4-Cyclopropylamino-7H-pyrrolo[2,3-d]pyrimidine-5-carbonyl)-2,4-difluoro-phenyl]-2-fluoro-benzenesulfonamide]	< 5.00	< 5.00	< 5.00	M (moderate solubility if the threshold concentration is 31.3 μM to 250 μM)	L (low solubility if the threshold concentration is <31.3 μM)	L (low solubility if the threshold concentration is <31.3 μM)	M (moderate solubility if the threshold concentration is 31.3 μM to 250 μM)	< 5.00	< 5.00	< 5.00	–	–	–
O=C(c1c(F)ccc(NS(=O)(=O)c2cc(F)ccc2F)c1F)c1c[nH]c2ncnc(NC3CC3)c12 [P-1104, N-[3-(4-Cyclopropylamino-7H-pyrrolo[2,3-d]pyrimidine-5-carbonyl)-2,4-difluoro-phenyl]-2,5-difluoro-benzenesulfonamide]	< 5.00	< 5.00	< 5.00	H (high solubility if the threshold concentration is >250 μm)	M (moderate solubility if the threshold concentration is 31.3 μM to 250 μM)	M (moderate solubility if the threshold concentration is 31.3 μM to 250 μM)	M (moderate solubility if the threshold concentration is 31.3 μM to 250 μM)	< 5.00	< 5.00	< 5.00	–	–	–
O=C(c1c(F)ccc(NS(=O)(=O)c2cc(F)ccc2F)c1F)c1c[nH]c2ncnc(C3CC3)c12 [P-1107, N-[3-(4-Cyclopropyl-7H-pyrrolo[2,3-d]pyrimidine-5-carbonyl)-2,4-difluoro-phenyl]-2,5-difluoro-benzenesulfonamide]	< 5.00	–	< 5.00	M (moderate solubility if the threshold concentration is 31.3 μM to 250 μM)	L (low solubility if the threshold concentration is <31.3 μM)	M (moderate solubility if the threshold concentration is 31.3 μM to 250 μM)	M (moderate solubility if the threshold concentration is 31.3 μM to 250 μM)	< 5.00	< 5.00	< 5.00	–	–	5.00 to 5.30
